Measured values reported in patent publication US20040087590A1, “Novel biphenyl and biphenyl-like cannabinoids” (University of Connecticut, priority 2002, published 2004).
Where two headings read alike, the source gives them in different places.

What was measured:
CB1 cannabinoid receptor = molecular target: T1, CB1 cannabinoid receptor (Rattus norvegicus, UniProt P20272); test: CB1 receptor binding assay ([3H] CP-55,940 displacement, rat forebrain membranes); details: 0.8 nM [3H] CP-55,940, read-out: CB1 (nM) binding affinity (Ki)
T1 construct: membranes were prepared from rat forebrain membranes; from tissue; host or cells: rat forebrain membranes
T1 sequence (P20272 whole entry): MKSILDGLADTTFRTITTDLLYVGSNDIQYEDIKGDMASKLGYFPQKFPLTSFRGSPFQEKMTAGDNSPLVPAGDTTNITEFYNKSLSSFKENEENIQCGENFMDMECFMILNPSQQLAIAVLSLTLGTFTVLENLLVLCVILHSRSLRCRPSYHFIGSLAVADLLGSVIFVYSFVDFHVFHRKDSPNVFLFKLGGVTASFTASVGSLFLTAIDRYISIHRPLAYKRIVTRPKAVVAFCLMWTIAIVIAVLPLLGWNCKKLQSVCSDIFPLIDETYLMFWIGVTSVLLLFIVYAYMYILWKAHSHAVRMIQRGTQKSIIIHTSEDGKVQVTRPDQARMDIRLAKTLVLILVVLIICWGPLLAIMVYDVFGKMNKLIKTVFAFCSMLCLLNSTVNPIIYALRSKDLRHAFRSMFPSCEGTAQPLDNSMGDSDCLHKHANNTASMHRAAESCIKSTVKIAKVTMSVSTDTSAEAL
Method: Some inventive analogs were tested for CB2 receptor binding affinity and for CB1 receptor affinity (to determine selectivity). As used herein, “binding affinity” is represented by the Ki value which is the inhibition constant correlated with the concentration of an analog required to occupy the 50% of the total number (Bmax) of the receptors. The lower the Ki value, the higher the binding affinity. […] For the CB1 receptor binding studies, membranes were prepared from rat forebrain membranes according to the procedure of P. R. Dodd et al, A Rapid Method for Preparing Synaptosomes: Comparison with Alternative Procedures, Brain Res., 107-118 (1981). The binding of the novel analogues to the CB1 cannabinoid receptor was assessed as described in W. A. Devane et al, Determination and Characterization of a Cannabinoid Receptor in a Rat Brain, Mol. Pharmacol., 34, 605-613 (1988) and A. Charalambous et al, 5′-azido Δ^8-THC: A Novel Photoaffinity Label for the Cannabinoid Receptor, J. Med. Chem., 35, 3076-3079 (1992) with the following changes. The above articles are incorporated by reference herein.
Membranes, previously frozen at −80° C., were thawed on ice. To the stirred suspension was added three volumes of TME (25 mM Tris-HCl buffer, 5 mM MgCl2 and 1 mM EDTA) at a pH 7.4. The suspension was incubated at 4° C. for 30 min. At the end of the incubation, the membranes were pelleted and washed three times with TME.
The treated membranes were subsequently used in the binding assay described below. Approximately 30 μg of membranes were incubated in silanized 96-well microtiter plate with TME containing 0.1% essentially fatty acid-free bovine serum albumin (BSA), 0.8 nM [^3H] CP-55,940, and various concentrations of test materials in a final volume of 200 μL. The assays were incubated for 1 hour at 30° C. and then immediately filtered using Packard Filtermate 196 harvester and Whatman GF/C filterplates and washed with wash buffer (TME) containing 0.5% BSA. Radioactivity was detected using MicroScint 20 scintillation cocktail added directly to the dried filterplates, and the filterplates were counted using a Packard Instruments Top-Count. Nonspecific binding was assessed using 100 nM CP-55,940. Data collected from three independent experiments performed with duplicate determinations was normalized between 100% and 0% specific binding for [^3H] CP-55,940, determined using buffer and 100 nM CP-55,940. The normalized data was analyzed using a 4-parameter nonlinear logistic equation to yield IC50 values. Data from at least two independent experiments performed in duplicate was used to calculate IC50 values which were converted to Ki values using the assumptions of Cheng et al, Relationship Between the Inhibition Constant (Ki) and the concentration of Inhibitor which causes 50% Inhibition (IC50) of an Enzymatic Reaction, Biochem. Pharmacol., 22, 3099-3102, (1973), which is incorporated by reference herein.

CB2 receptor = molecular target: T2, CB2 receptor (Mus musculus, UniProt P47936); test: CB2 receptor binding assay ([3H] CP-55,940 displacement, mouse spleen membranes)
T2 construct: membranes were prepared from frozen mouse spleen; from tissue; host or cells: frozen mouse spleen membranes
T2 sequence (P47936 whole entry): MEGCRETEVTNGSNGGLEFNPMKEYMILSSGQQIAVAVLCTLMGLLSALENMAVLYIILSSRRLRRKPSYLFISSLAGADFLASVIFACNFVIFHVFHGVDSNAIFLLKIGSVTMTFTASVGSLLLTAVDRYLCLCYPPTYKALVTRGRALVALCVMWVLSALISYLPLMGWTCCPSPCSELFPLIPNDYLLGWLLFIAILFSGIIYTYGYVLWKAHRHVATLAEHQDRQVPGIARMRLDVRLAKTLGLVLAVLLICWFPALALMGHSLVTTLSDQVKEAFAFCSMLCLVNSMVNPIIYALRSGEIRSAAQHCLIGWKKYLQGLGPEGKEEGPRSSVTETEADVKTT
Method: The treated membranes were subsequently used in the binding assay described below. Approximately 30 μg of membranes were incubated in silanized 96-well microtiter plate with TME containing 0.1% essentially fatty acid-free bovine serum albumin (BSA), 0.8 nM [^3H] […] Radioactivity was detected using MicroScint 20 scintillation cocktail added directly to the dried filterplates, and the filterplates were counted using a Packard Instruments Top-Count. […] Data collected from three independent experiments performed with duplicate determinations was normalized between 100% and 0% specific binding for [^3H] […] The normalized data was analyzed using a 4-parameter nonlinear logistic equation to yield IC50 values.
Silanized centrifuge tubes were used throughout to minimize receptor loss due to adsorption. The CB2 binding assay was conducted in the same manner as for the CB1 binding assay. The binding affinities (Ki) were also expressed in nanomoles (nM).

[1] = mouse spleen membranes, [3H] CP-55,940, read-out: CB2 (nM) binding affinity (Ki)

| Structure (SMILES) | Ki (CB1 cannabinoid receptor) [nM] | Ki (CB2 receptor; [1]) [nM] | Ki (CB2 receptor) [nM] |
| --- | --- | --- | --- |
| CCCCCCC(C)(C)c1cc(O)c(-c2cc(C)ccc2F)c(O)c1 [Compound 5] | 6.5 | 2.3 | – |
| CCCCCCC(C)(C)c1cc(O)c(-c2cc(O)ccc2CO)c(O)c1 [Compound 15] | 141 | – | 4.5 |
| CCCCCCC(C)(C)c1cc(O)c(-c2cc(Cl)cc(Cl)c2)c(O)c1 [Compound 1] | 2.6 | 0.6 | – |
| CCCCCCC(C)(C)c1cc(O)c(-c2cccc(C(C)=O)c2)c(O)c1 [Compound 24] | 297 | – | 11.3 |
| CCCCCCC(C)(C)c1cc(O)c(-c2c(F)cccc2F)c(O)c1 [Compound 8] | 40.3 | 13.4 | – |
| CCCCCCC(C)(C)c1cc(O)c(-c2cccc(/C=C/C(=O)OCC)c2)c(O)c1 [Compound 30] | 397 | 10 | – |
| CCCCCCC(C)(C)c1cc(O)c(-c2ccccc2CO)c(O)c1 [Compound 14] | 53.8 | 1.4 | – |
| CCCCCCC(C)(C)c1cc(O)c(-c2cc(C(F)(F)F)cc(C(F)(F)F)c2)c(O)c1 [Compound 2] | 9.7 | 0.9 | – |
| CCCCCCC(C)(C)c1cc(O)c(-c2c(Cl)ccc(Cl)c2Cl)c(O)c1 [Compound 9] | 23.2 | – | 3.4 |
| CCCCCCC(C)(C)c1cc(O)c(-c2cc(O)ccc2CCCO)c(O)c1 [Compound 25] | 12.2 | 1 | – |
| CCCCCCC(C)(C)c1cc(O)c(-c2cc(C)c(O)c(C)c2)c(O)c1 [Compound 10] | 1360 | 15.3 | – |
| CCCCCCC(C)(C)c1cc(O)c(-c2cncc(C(=O)OCC)c2)c(O)c1 [Compound 21] | 17.2 | – | 0.2 |
| CCCCCCC(C)(C)c1cc(O)c(-c2cc(F)ccc2CO)c(O)c1 [Compound 26] | 24.5 | 1.8 | – |
| CCCCCCC(C)(C)c1cc(O)c(-c2cc(Cl)ccc2Cl)c(O)c1 [Compound 6] | 7.7 | 2.6 | – |
| CCCCCCC(C)(C)c1cc(O)c(-c2cc(CO)ccc2C)c(O)c1 [Compound 28] | 70.4 | 7 | – |
| CCCCCCC(C)(C)c1cc(O)c(-c2cc(C)c(OC)c(C)c2)c(O)c1 [Compound 11] | 1080 | 12.8 | – |
| CCCCCCC(C)(C)c1cc(O)c(-c2cccc(C(=O)OCC)c2)c(O)c1 [Compound 22] | 241 | 0.8 | – |
| CCCCCCCN(C)c1cc(O)c(-c2cc(OC)ccc2C(=O)N(C(C)C)C(C)C)c(OC)c1 [Compound 36] | 1870 | – | 154 |
| CCCCCCC(C)(C)c1cc(O)c(-c2cc([N+](=O)[O-])cc([N+](=O)[O-])c2)c(O)c1 [Compound 3] | 199 | 3.5 | – |
| CCCCCCC(C)(C)c1cc(O)c(-c2ccc(C(=O)OCC)o2)c(O)c1 [Compound 29] | 3220 | – | 35.4 |
| CCCCCCC(C)(C)c1cc(O)c(-c2cc(CO)ccc2CO)c(O)c1 [Compound 27] | 29.6 | 2.6 | – |
| CCCCCCC(C)(C)c1cc(O)c(-c2cc(C)c(N)c(C)c2)c(O)c1 [Compound 12] | 797 | 8 | – |
| CCCCCCC(C)(C)c1cc(O)c(-c2cc(Cl)cc(Cl)c2)c(OC)c1 [Compound 7] | 105 | 13.9 | – |
| CCCCCCC(C)(C)c1cc(O)c(-c2cccc(C#N)c2)c(O)c1 [Compound 31] | 20 | 1.1 | – |
| CCCCCCC(C)(C)c1cc(O)c(-c2cc(Br)ccc2CO)c(O)c1 [Compound 32] | 8.6 | – | 0.7 |
| CCCCCCC(C)(C)c1cc(O)c(-c2cc(F)cc(F)c2)c(O)c1 [Compound 4] | 57.5 | 8.4 | – |
